Assay results reported in patent publication US10487092B2, “Pyrazolopyridinamines as MKNK1 and MKNK2 inhibitors” (BAYER PHARMA AKTIENGESELLSCHAFT, priority 2014, dated 2019).

biological target: human full-length MKNK1 (Homo sapiens (Human), UniProt Q9BUB5, T344D); test: MKNK1 kinase high ATP assay (TR-FRET); format: biochemical; conditions: not given
Procedure: MKNK1 Kinase High ATP Assay
MKNK1-inhibitory activity at high ATP of compounds of the present invention after their preincubation with MKNK1 was quantified employing the TR-FRET-based MKNK1 high ATP assay as described in the following paragraphs.
A recombinant fusion protein of Glutathione-S-Transferase (GST, N-terminally) and human full-length MKNK1 (amino acids 1-424 and T344D of accession number BAA 19885.1), expressed in insect cells using baculovirus expression system and purified via glutathione sepharose affinity chromatography, was purchased from Carna Biosciences (product no 02-145) and used as enzyme. As substrate for the kinase reaction the biotinylated peptide biotin-Ahx-IKKRKLTRRKSLKG (SEQ ID NO: 1, C-terminus in amide form) was used, which can be purchased e.g. from the company Biosyntan (Berlin-Buch, Germany).
For the assay 50 nL of a 100 fold concentrated solution of the test compound in DMSO was pipetted into a black low volume 384 well microtiter plate (Greiner Bio-One, Frickenhausen, Germany), 2 μL of a solution of MKNK1 in aqueous assay buffer [50 mM HEPES pH 7.5, 5 mM MgCl2, 1.0 mM dithiothreitol, 0.005% (v/v) Nonidet-P40 (Sigma)] was added and the mixture was incubated for 15 min at 22° C. to allow pre-binding of the test compounds to the enzyme before the start of the kinase reaction. Then the kinase reaction was started by the addition of 3 μL of a solution of adenosine-tri-phosphate (ATP, 3.3 mM=>final conc. in the 5 μL assay volume is 2 mM) and substrate (0.1 μM=>final conc. in the 5 μL assay volume is 0.06 μM) in assay buffer and the resulting mixture was incubated for a reaction time of 30 min at 22° C. The concentration of MKNK1 was adjusted depending of the activity of the enzyme lot and was chosen appropriate to have the assay in the linear range, typical concentrations were in the range of 0.003 μg/mL. The reaction was stopped by the addition of 5 μL of a solution of TR-FRET detection reagents (5 nM streptavidine-XL665 [Cisbio Bioassays, Codolet, France] and 1 nM anti-ribosomal protein S6 (pSer236)-antibody from Invitrogen [#44921G] and 1 nM LANCE EU-W1024 labeled ProteinG [Perkin-Elmer, product no. AD0071]) in an aqueous EDTA-solution (100 mM EDTA, 0.1% (w/v) bovine serum albumin in 50 mM HEPES pH 7.5).
The resulting mixture was incubated for 1 h at 22° C. to allow the formation of complex between the phosphorylated biotinylated peptide and the detection reagents. Subsequently the amount of phosphorylated substrate was evaluated by measurement of the resonance energy transfer from the Eu-chelate to the streptavidine-XL. Therefore, the fluorescence emissions at 620 nm and 665 nm after excitation at 350 nm were measured in a TR-FRET reader, e.g. a Rubystar (BMG Labtechnologies, Offenburg, Germany) or a Viewlux (Perkin-Elmer). The ratio of the emissions at 665 nm and at […] was taken as the measure for the amount of phosphorylated substrate. The data were normalised (enzyme reaction without inhibitor=0% inhibition, all other assay components but no enzyme=100% inhibition).

Chain of human full-length MKNK1 (Q9BUB5 other isoform, or with tags, fused parts or gaps T344D): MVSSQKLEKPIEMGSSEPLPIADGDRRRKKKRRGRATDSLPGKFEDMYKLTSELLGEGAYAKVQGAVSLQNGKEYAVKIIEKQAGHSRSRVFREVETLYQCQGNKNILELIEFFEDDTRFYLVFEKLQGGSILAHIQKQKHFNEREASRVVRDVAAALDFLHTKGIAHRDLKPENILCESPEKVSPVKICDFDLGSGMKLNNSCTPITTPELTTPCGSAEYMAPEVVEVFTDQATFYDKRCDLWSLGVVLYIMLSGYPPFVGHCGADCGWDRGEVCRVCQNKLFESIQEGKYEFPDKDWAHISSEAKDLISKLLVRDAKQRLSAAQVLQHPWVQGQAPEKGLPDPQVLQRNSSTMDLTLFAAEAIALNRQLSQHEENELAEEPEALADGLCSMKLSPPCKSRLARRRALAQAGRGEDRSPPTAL

| Structure (SMILES) | IC50 |
| --- | --- |
| O=C1CCN(C(=O)[C@H]2CCc3c(sc4ncnc(Nc5ccn6nccc6c5)c34)C2)CC1 [Example 33, 1-{[(7S)-4-(Pyrazolo[1,5-a]pyridin-5-ylamino)-5,6,7,8-tetrahydro[1]benzothieno[2,3-d]pyrimidin-7-yl]carbonyl}piperidin-4-one] | 96 nM |

same assay, conditions: high ATP (2 mM), 15 min preincubation with enzyme; read-out: MKNK1 IC50

| Structure (SMILES) | IC50 |
| --- | --- |
| CN(C)C(=O)CN(C)C(=O)[C@H]1CCc2c(sc3ncnc(Nc4ccn5nccc5c4)c23)C1 [Example 26, (7S)—N-[2-(Dimethylamino)-2-oxoethyl]-N-methyl-4-(pyrazolo[1,5-a]pyridin-5-ylamino)-5,6,7,8-tetrahydro[1]benzothieno[2,3-d]pyrimidine-7-carboxamide] | 14 nM |
| CN(C)C1CN(C(=O)[C@H]2CCc3c(sc4ncnc(Nc5ccn6nccc6c5)c34)C2)C1 [Example 28, [3-(Dimethylamino)azetidin-1-yl][(7S)-4-(pyrazolo[1,5-a]pyridin-5-ylamino)-5,6,7,8-tetrahydro[1]benzothieno[2,3-d]pyrimidin-7-yl]methanone] | 19 nM |
| CN1CCN(C(=O)[C@H]2CCc3c(sc4ncnc(Nc5ccn6nccc6c5)c34)C2)CC1 [Example 29, (4-Methylpiperazin-1-yl)[(7S)-4-(pyrazolo[1,5-a]pyridin-5-ylamino)-5,6,7,8-tetrahydro[1]benzothieno[2,3-d]pyrimidin-7-yl]methanone] | 20 nM |
| CC1(O)CN(C(=O)[C@H]2CCc3c(sc4ncnc(Nc5ccn6nccc6c5)c34)C2)C1 [Example 30, (3-Hydroxy-3-methylazetidin-1-yl)[(7S)-4-(pyrazolo[1,5-a]pyridin-5-ylamino)-5,6,7,8-tetrahydro[1]benzothieno[2,3-d]pyrimidin-7-yl]methanone] | 16 nM |
| CN(C)CCN1CCN(C(=O)[C@H]2CCc3c(sc4ncnc(Nc5ccn6nccc6c5)c34)C2)CC1 [Example 31, {4-[2-(Dimethylamino)ethyl]piperazin-1-yl}[(7S)-4-(pyrazolo[1,5-a]pyridin-5-ylamino)-5,6,7,8-tetrahydro[1]benzothieno[2,3-d]pyrimidin-7-yl]methanone] | 26 nM |
| O=C([C@H]1CCc2c(sc3ncnc(Nc4ccn5nccc5c4)c23)C1)N1CCC(F)(F)C1 [Example 34, (3,3-Difluoropyrrolidin-1-yl)[(7S)-4-(pyrazolo[1,5-a]pyridin-5-ylamino)-5,6,7,8-tetrahydro[1]benzothieno[2,3-d]pyrimidin-7-yl]methanone] | 71 nM |
| O=C([C@H]1CCc2c(sc3ncnc(Nc4ccn5nccc5c4)c23)C1)N1CC2(COC2)C1 [Example 35, 2-Oxa-6-azaspiro[3.3]hept-6-yl[(7S)-4-(pyrazolo[1,5-a]pyridin-5-ylamino)-5,6,7,8-tetrahydro[1]benzothieno[2,3-d]pyrimidin-7-yl]methanone] | 75 nM |
| O=C([C@H]1CCc2c(sc3ncnc(Nc4ccn5nccc5c4)c23)C1)N1C[C@@H]2C[C@H]1CO2 [Example 36, (1S,4S)-2-Oxa-5-azabicyclo[2.2.1]hept-5-yl[(7S)-4-(pyrazolo[1,5-a]pyridin-5-ylamino)-5,6,7,8-tetrahydro[1]benzothieno[2,3-d]pyrimidin-7-yl]methanone] | 91 nM |
| O=C([C@H]1CCc2c(sc3ncnc(Nc4ccn5nccc5c4)c23)C1)N1C[C@H]2C[C@@H]1CO2 [Example 37, (1R,4R)-2-Oxa-5-azabicyclo[2.2.1]hept-5-yl[(7S)-4-(pyrazolo[1,5-a]pyridin-5-ylamino)-5,6,7,8-tetrahydro[1]benzothieno[2,3-d]pyrimidin-7-yl]methanone] | 56 nM |
| CN1C[C@@H]2C[C@H]1CN2C(=O)[C@H]1CCc2c(sc3ncnc(Nc4ccn5nccc5c4)c23)C1 [Example 38, [(1S,4S)-5-Methyl-2,5-diazabicyclo[2.2.1]hept-2-yl][(7S)-4-(pyrazolo[1,5-a]pyridin-5-ylamino)-5,6,7,8-tetrahydro[1]benzothieno[2,3-d]pyrimidin-7-yl]methanone] | 25 nM |
| CN(C)CCN(C)C1CCN(C(=O)[C@H]2CCc3c(sc4ncnc(Nc5ccn6nccc6c5)c34)C2)CC1 [Example 40, (4-{[2-(Dimethylamino)ethyl](methyl)amino}piperidin-1-yl)[(7S)-4-(pyrazolo[1,5-a]pyridin-5-ylamino)-5,6,7,8-tetrahydro[1]benzothieno[2,3-d]pyrimidin-7-yl]methanone] | 6 nM |
| CN1C[C@H]2C[C@@H]1CN2C(=O)[C@H]1CCc2c(sc3ncnc(Nc4ccn5nccc5c4)c23)C1 [Example 42, [(1R,4R)-5-Methyl-2,5-diazabicyclo[2.2.1]hept-2-yl][(7S)-4-(pyrazolo[1,5-a]pyridin-5-ylamino)-5,6,7,8-tetrahydro[1]benzothieno[2,3-d]pyrimidin-7-yl]methanone] | 11 nM |
| O=C(NCCC(F)(F)F)[C@H]1CCc2c(sc3ncnc(Nc4cc5ccnn5cc4Cl)c23)C1 [Example 43, (7S)-4-[(6-Chloropyrazolo[1,5-a]pyridin-5-yl)amino]-N-(3,3,3-trifluoropropyl)-5,6,7,8-tetrahydro[1]benzothieno[2,3-d]pyrimidine-7-carboxamide] | 35 nM |
| CC(C)NC(=O)[C@H]1CCc2c(sc3ncnc(Nc4cc5ccnn5cc4Cl)c23)C1 [Example 44, (7S)-4-[(6-Chloropyrazolo[1,5-a]pyridin-5-yl)amino]-N-(propan-2-yl)-5,6,7,8-tetrahydro[1]benzothieno[2,3-d]pyrimidine-7-carboxamide] | 54 nM |
| CN(C)C(=O)[C@H]1CCc2c(sc3ncnc(Nc4cc5ccnn5cc4Cl)c23)C1 [Example 45, (7S)-4-[(6-Chloropyrazolo[1,5-a]pyridin-5-yl)amino]-N,N-dimethyl-5,6,7,8-tetrahydro[1]benzothieno[2,3-d]pyrimidine-7-carboxamide] | 12 nM |
| CCN(C)C(=O)[C@H]1CCc2c(sc3ncnc(Nc4cc5ccnn5cc4Cl)c23)C1 [Example 46, (7S)-4-[(6-Chloropyrazolo[1,5-a]pyridin-5-yl)amino]-N-ethyl-N-methyl-5,6,7,8-tetrahydro[1]benzothieno[2,3-d]pyrimidine-7-carboxamide] | 11 nM |
| CN(CC(F)F)C(=O)[C@H]1CCc2c(sc3ncnc(Nc4cc5ccnn5cc4Cl)c23)C1 [Example 47, (7S)-4-[(6-Chloropyrazolo[1,5-a]pyridin-5-yl)amino]-N-(2,2-difluoroethyl)-N-methyl-5,6,7,8-tetrahydro[1]benzothieno[2,3-d]pyrimidine-7-carboxamide] | 18 nM |
| CN(CCC(F)(F)F)C(=O)[C@H]1CCc2c(sc3ncnc(Nc4cc5ccnn5cc4Cl)c23)C1 [Example 48, (7S)-4-[(6-Chloropyrazolo[1,5-a]pyridin-5-yl)amino]-N-methyl-N-(3,3,3-trifluoropropyl)-5,6,7,8-tetrahydro[1]benzothieno[2,3-d]pyrimidine-7-carboxamide] | 35 nM |
| CCCCN(C)C(=O)[C@H]1CCc2c(sc3ncnc(Nc4cc5ccnn5cc4Cl)c23)C1 [Example 49, (7S)—N-Butyl-4-[(6-chloropyrazolo[1,5-a]pyridin-5-yl)amino]-N-methyl-5,6,7,8-tetrahydro[1]benzothieno[2,3-d]pyrimidine-7-carboxamide] | 15 nM |
| N#CC1CN(C(=O)[C@H]2CCc3c(sc4ncnc(Nc5cc6ccnn6cc5Cl)c34)C2)C1 [Example 50, 1-((7S)-4-[(6-Chloropyrazolo[1,5-a]pyridin-5-yl)amino]-5,6,7,8-tetrahydro[1]benzothieno[2,3-d]pyrimidin-7-ylcarbonyl)azetidine-3-carbonitrile] | 7 nM |
| CC1(O)CN(C(=O)[C@H]2CCc3c(sc4ncnc(Nc5cc6ccnn6cc5Cl)c34)C2)C1 [Example 52, (7S)-4-[(6-Chloropyrazolo[1,5-a]pyridin-5-yl)amino]-5,6,7,8-tetrahydro[1]benzothieno[2,3-d]pyrimidin-7-yl(3-hydroxy-3-methylazetidin-1-yl)methanone] | 8 nM |
| CN(CCO)C(=O)[C@H]1CCc2c(sc3ncnc(Nc4cc5ccnn5cc4Cl)c23)C1 [Example 55, (7S)-4-[(6-Chloropyrazolo[1,5-a]pyridin-5-yl)amino]-N-(2-hydroxyethyl)-N-methyl-5,6,7,8-tetrahydro[1]benzothieno[2,3-d]pyrimidine-7-carboxamide] | 18 nM |
